Results published in patent US7223865B2, “Chromogenic compounds, and use thereof as enzyme substrates” (Biomerieux, priority 2003, dated 2007).

Assays:
[1] = tested on: Candida albicans (138); assay: L-serine-aminopeptidase activity on gelled medium, Example 7; type: cell-based; details: 0.3 g/l, 18 to 24 hours
Description: (§1) A gelled medium comprising L-seryl-9-(4-amino-phenyl)acridine (hereinafter referred to as L-Ser-4-APA) is prepared as follows: 30 milligrams of L-Ser-4-APA are added to 4 grams of Columbia agar, that are added to 0.1 liter of distilled water and then autoclaved. This reaction medium is autoclaved at 116° C. for 20 minutes.
(§2) Microorganisms derived from the applicant's collection were seeded onto this medium using a suspension of 0.5 McFarland. The dishes were incubated at 37° C. for 24 hours. Samples of 10 μl of each suspension were cultured so as to produce colonies. The colonies formed were examined visually after incubation for 18 to 24 hours.
(§3) The color of these colonies was noted before and after the addition of a drop of acetic acid, hereinafter referred to as GAA (glacial acetic acid).

[2] = tested on: Enterococcus faecalis (117); assay: as above; type: cell-based; details: 0.3 g/l, 18 to 24 hours
Description: as §1, §2, §3

[3] = tested on: Escherichia coli (009); assay: as above; type: cell-based; details: 0.3 g/l, 18 to 24 hours
Description: as §1, §2, §3

[4] = tested on: Klebsiella pneumoniae (012); assay: as above; type: cell-based; details: 0.3 g/l, 18 to 24 hours
Description: as §1, §2, §3

[5] = tested on: Staphylococcus aureus (008); assay: as above; type: cell-based; details: 0.3 g/l, 18 to 24 hours
Description: as §1, §2, §3

[6] = tested on: Yersinia enterocolitica (061); assay: as above; type: cell-based; details: 0.3 g/l, 18 to 24 hours
Description: as §1, §2, §3

[7] = substrate dissolution in autoclaved Columbia agar medium; type: physicochemical; details: 30 milligrams with 4 grams of Columbia agar in 0.1 liter of distilled water, autoclaved at 116° C. for 20 minutes
Description: as §1

[8] = tested on: Burkholderia cepacia (NCTC 10743); assay: t-BOC-L-alanyl-L-alanyl-L-alanyl-peptidase activity on gelled medium, Example 11; type: cell-based; parameters: key to growth: ++ means good growth; + means moderate growth; +/− means poor growth; NG means no growth
Description: (§4) A gelled medium comprising this substrate is prepared as follows: 30 mg of the substrate are dissolved (heating) in 10 ml of sterile distilled water. Ten ml of this solution are then added to 90 ml of Columbia agar, kept molten at 50° C.
(§5) Various strains of microorganisms derived from the NCTC collection (National Collection of Type Cultures, Colindale, UK) were seeded onto the media thus obtained according to the multipoint inoculation described in example 8 above.
(§6) The colonies formed were examined visually after incubation for 24 h and 48 h. The color and the growth of these colonies were noted.

[9] = tested on: Enterobacter cloacae (NCTC 11936); assay: as above; type: cell-based; parameters: key to growth: ++ means good growth; + means moderate growth; +/− means poor growth; NG means no growth
Description: as §4, §5, §6

[10] = tested on: Enterococcus faecalis (NCTC 12697); assay: as above; type: cell-based; parameters: key to growth: ++ means good growth; + means moderate growth; +/− means poor growth; NG means no growth
Description: as §4, §5, §6

[11] = tested on: Enterococcus faecium (NCTC 7171); assay: as above; type: cell-based; parameters: key to growth: ++ means good growth; + means moderate growth; +/− means poor growth; NG means no growth
Description: as §4, §5, §6

[12] = tested on: Escherichia coli O157 (NCTC 12079); assay: as above; type: cell-based; parameters: key to growth: ++ means good growth; + means moderate growth; +/− means poor growth; NG means no growth
Description: as §4, §5, §6

[13] = tested on: Klebsiella pneumonia (NCTC 10896); assay: as above; type: cell-based; parameters: key to growth: ++ means good growth; + means moderate growth; +/− means poor growth; NG means no growth
Description: as §4, §5, §6

[14] = tested on: Listeria monocytogenes (NCTC 11994); assay: as above; type: cell-based; parameters: key to growth: ++ means good growth; + means moderate growth; +/− means poor growth; NG means no growth
Description: as §4, §5, §6

[15] = tested on: Pseudomonas aeruginosa (NCTC 10662); assay: as above; type: cell-based; parameters: key to growth: ++ means good growth; + means moderate growth; +/− means poor growth; NG means no growth
Description: as §4, §5, §6

[16] = tested on: Salmonella poona (NCTC 4840); assay: as above; type: cell-based; parameters: key to growth: ++ means good growth; + means moderate growth; +/− means poor growth; NG means no growth
Description: as §4, §5, §6

[17] = tested on: Salmonella typhimurium (NCTC 74); assay: as above; type: cell-based; parameters: key to growth: ++ means good growth; + means moderate growth; +/− means poor growth; NG means no growth
Description: as §4, §5, §6

[18] = tested on: Serratia marcescens (NCTC 10211); assay: as above; type: cell-based; parameters: key to growth: ++ means good growth; + means moderate growth; +/− means poor growth; NG means no growth
Description: as §4, §5, §6

[19] = tested on: Shigella sonnei (NCTC 9774); assay: as above; type: cell-based; parameters: key to growth: ++ means good growth; + means moderate growth; +/− means poor growth; NG means no growth
Description: as §4, §5, §6

[20] = tested on: Staphylococcus aureus (NCTC 11939); assay: as above; type: cell-based; parameters: key to growth: ++ means good growth; + means moderate growth; +/− means poor growth; NG means no growth
Description: as §4, §5, §6

[21] = tested on: Enterococcus faecalis (NCTC 755); assay: as above; type: cell-based; parameters: key: ++ means good growth; + means moderate growth; +/− means poor growth; NG means no growth
Description: as §4, §5, §6

[22] = tested on: Staphylococcus aureus (NCTC 6571); assay: as above; type: cell-based; parameters: key: ++ means good growth; + means moderate growth; +/− means poor growth; NG means no growth
Description: as §4, §5, §6

N[C@@H](CO)C(=O)Nc1ccc(-c2c3ccccc3nc3ccccc23)cc1 [L-Ser-4-APA, L-Seryl-9-(4-aminophenyl)acridine]
2: Intensity ([3]; after GAA) | Intensity ([4]; after GAA) | Intensity ([6]; after GAA)
cream: Color ([1]; after GAA) | Color ([1]; before GAA) | Color ([2]; after GAA) | Color ([2]; before GAA) | Color ([3]; before GAA) | Color ([4]; before GAA) | Color ([5]; after GAA) | Color ([5]; before GAA) | Color ([6]; before GAA)
pale orange: Color ([3]; after GAA) | Color ([4]; after GAA) | Color ([6]; after GAA)
Most of the substrate is in solution: substrate in solution in the medium [7]

C[C@H](NC(=O)OC(C)(C)C)C(=O)N[C@@H](C)C(=O)N[C@@H](C)C(=O)Nc1ccc(-c2c3ccccc3[n+](C)c3ccccc23)cc1.[Cl-] [t-BOC-L-Ala-Ala-Ala-4-AP-10-MA, t-BOC-L-alanyl-L-alanyl-L-alanyl-9-(4-aminophenyl)-10-methylacridine]
Colorless: color of colonies ([10]; 24 h) | color of colonies ([10]; 48 h) | color of colonies ([11]; 24 h) | color of colonies ([11]; 48 h) | color of colonies ([14]; 24 h) | color of colonies ([14]; 48 h) | color of colonies ([20]; 24 h) | color of colonies ([20]; 48 h)
+/−: growth ([10]; 24 h) | growth ([10]; 48 h) | growth ([11]; 24 h) | growth ([14]; 24 h)
+: growth ([14]; 48 h) | growth ([20]; 24 h) | growth ([20]; 48 h)
NG: growth ([21]; 24 h) | growth ([21]; 48 h) | growth ([22]; 24 h) | growth ([22]; 48 h)
Pale orange: color of colonies ([12]; 24 h) | color of colonies ([12]; 48 h) | color of colonies ([15]; 24 h) | color of colonies ([16]; 24 h) | color of colonies ([16]; 48 h) | color of colonies ([17]; 24 h) | color of colonies ([17]; 48 h) | color of colonies ([19]; 24 h) | color of colonies ([19]; 48 h)
Orange: color of colonies ([8]; 24 h) | color of colonies ([8]; 48 h) | color of colonies ([9]; 24 h) | color of colonies ([9]; 48 h) | color of colonies ([13]; 24 h) | color of colonies ([13]; 48 h) | color of colonies ([18]; 24 h) | color of colonies ([18]; 48 h)
Pale Orange: color of colonies ([15]; 48 h)
(++): growth ([12]; 24 h) | growth ([15]; 24 h) | growth ([16]; 24 h) | growth ([17]; 24 h) | growth ([19]; 24 h)
++: growth ([8]; 24 h) | growth ([8]; 48 h) | growth ([9]; 24 h) | growth ([9]; 48 h) | growth ([11]; 48 h) | growth ([12]; 48 h) | growth ([13]; 24 h) | growth ([13]; 48 h) | growth ([15]; 48 h) | growth ([16]; 48 h) | growth ([17]; 48 h) | growth ([18]; 24 h) | growth ([18]; 48 h) | growth ([19]; 48 h)
